The target of this experiment is T1, human mGluR2 receptor (Homo sapiens, UniProt Q14416).
T1 construct: expressed in transfected cells; host or cells: CHO cells (membranes)
Kind of experiment: [35S]GTPγS binding assay, mGluR2 positive allosteric modulation (PAM). The class given is biochemical. To be noted: membranes from CHO cells transfected with human mGluR2, in presence of glutamate at EC20; for EC50: -log EC50 with EC50 in M, read-out: GTPγS - hmGluR2 PAM pEC50 (converted); for Emax / GTPγS - hmGluR2 PAM Emax: maximal % effect relative to the control glutamate response; for Emax: read-out: GTPγS - hmGluR2 PAM Emax. As for the experimental part: The [^35S]GTPγS binding assay is a functional membrane-based assay used to study G-protein coupled receptor (GPCR) function whereby incorporation of a non-hydrolysable form of GTP, [^35S]GTPγS (guanosine 5′-triphosphate, labelled with […] ^35S), is measured. The G-protein α subunit catalyzes the exchange of guanosine 5′-diphosphate (GDP) by guanosine triphosphate (GTP) and on activation of the GPCR by an agonist, [^35S]GTPγS, becomes incorporated and cannot be cleaved to continue the exchange cycle (Harper (1998) Current Protocols in Pharmacology 2.6.1-10, John Wiley & Sons, Inc.). […] Here we describe the use of the [^35S]GTPγS binding assay using membranes from cells transfected with the human mGluR2 receptor and adapted from Schaffhauser et al. ((2003) Molecular Pharmacology 4:798-810) for the detection of the positive allosteric modulation (PAM) properties of the compounds of this invention.
CHO-cells were cultured to pre-confluence and stimulated with 5 mM butyrate for 24 h. Cells were then collected by scraping in PBS and cell suspension was centrifuged (10 min at 4000 RPM in benchtop centrifuge). Supernatant was discarded and pellet gently resuspended in 50 mM Tris-HCl, pH 7.4 by mixing with a vortex and pipetting up and down. The suspension was centrifuged at 16,000 RPM (Sorvall RC-5C plus rotor SS-34) for 10 minutes and the supernatant discarded. The pellet was homogenized in 5 mM Tris-HCl, pH 7.4 using an ultra-turrax homogenizer and centrifuged again (18,000 RPM, 20 min, 4° C.). The final pellet was resuspended in 50 mM Tris-HCl, pH 7.4 and stored at −80° C. in appropriate aliquots before use. Protein concentration was determined by the Bradford method (Bio-Rad, USA) with bovine serum albumin as standard.
Measurement of mGluR2 positive allosteric modulatory activity of test compounds was performed as follows. Test compounds and glutamate were diluted in assay buffer containing 10 mM HEPES acid, 10 mM HEPES salt, pH 7.4, 100 mM NaCl, 3 mM MgCl2 and 10 μM GDP. Human mGlu2 receptor-containing membranes were thawed on ice and diluted in assay buffer supplemented with 14 μg/ml saponin. Membranes were pre-incubated with compound alone or together with a predefined (˜EC20) concentration of glutamate (PAM assay) for 30 min at 30° C. After addition of [^35S]GTPγS (f.c. 0.1 nM), assay mixtures were shaken briefly and further incubated to allow [^35S]GTPγS incorporation on activation (30 minutes, 30° C.). Final assay mixtures contained 7 μg of membrane protein in 10 mM HEPES acid, 10 mM HEPES salt, pH 7.4, 100 mM NaCl, 3 mM MgCl2, 10 μM GDP and 10 μg/ml saponin. Total reaction volume was 200 μl. Reactions were terminated by rapid filtration through Unifilter-96 GF/B plates (Perkin Elmer, Mass., USA) using a 96-well filtermate universal harvester. Filters were washed 6 times with ice-cold 10 mM NaH2PO4/10 mM Na2HPO4, pH 7.4. Filters were then air-dried, and 40 μl of liquid scintillation cocktail (Microscint-O) was added to each well. Membrane-bound radioactivity was counted in a Microplate Scintillation and Luminescence Counter from Perkin Elmer.
The concentration-response curves of representative compounds of the present invention-obtained in the presence of EC20 of mGluR2 agonist glutamate to determine positive allosteric modulation (PAM)-were generated using the Lexis software interface (developed at J&J).
A general note: GTPγS is a poorly hydrolysed GTP analogue; its binding reports G protein activation.

Where a name gives a salt, the structure may show the parent alone.

T1 sequence (Q14416 19-872): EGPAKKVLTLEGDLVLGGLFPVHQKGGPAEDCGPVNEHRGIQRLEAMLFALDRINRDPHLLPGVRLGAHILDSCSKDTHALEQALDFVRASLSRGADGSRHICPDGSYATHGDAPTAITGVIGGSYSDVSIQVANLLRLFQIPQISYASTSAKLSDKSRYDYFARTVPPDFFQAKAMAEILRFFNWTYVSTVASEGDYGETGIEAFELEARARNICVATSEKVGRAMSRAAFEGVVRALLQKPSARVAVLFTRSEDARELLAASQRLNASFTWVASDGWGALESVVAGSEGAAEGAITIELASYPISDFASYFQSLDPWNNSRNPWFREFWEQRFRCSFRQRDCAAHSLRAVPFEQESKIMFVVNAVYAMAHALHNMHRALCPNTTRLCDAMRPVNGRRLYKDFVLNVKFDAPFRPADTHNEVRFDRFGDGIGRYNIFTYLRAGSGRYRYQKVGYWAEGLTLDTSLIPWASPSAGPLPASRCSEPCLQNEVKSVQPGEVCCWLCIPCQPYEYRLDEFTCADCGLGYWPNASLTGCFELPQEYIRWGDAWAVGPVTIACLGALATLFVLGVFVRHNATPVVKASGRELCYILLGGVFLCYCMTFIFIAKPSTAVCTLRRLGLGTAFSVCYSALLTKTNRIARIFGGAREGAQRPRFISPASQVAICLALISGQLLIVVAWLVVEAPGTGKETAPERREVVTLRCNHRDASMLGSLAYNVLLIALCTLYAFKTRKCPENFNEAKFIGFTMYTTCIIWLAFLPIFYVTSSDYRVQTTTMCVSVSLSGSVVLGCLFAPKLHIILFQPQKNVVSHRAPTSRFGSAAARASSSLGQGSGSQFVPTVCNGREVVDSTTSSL

For the molecule `Fc1ccc(N2CCN(Cc3ccn4c(CC5CC5)nnc4c3C(F)(F)F)C3CC32)c(F)c1` (racemic) [Compound 12, 2-[[3-(Cyclopropylmethyl)-8-(trifluoromethyl)-1,2,4-triazolo[4,3-a]pyridin-7-yl]methyl]-5-(2,4-difluorophenyl)-2,5-diazabicyclo[4.1.0]heptane (cis)], the EC50 was 12.6 nM and the Emax (as a rule, the greatest response seen or fitted, relative to the assay's reference) turned out to be 277%.

`CC1(c2ccccc2)CN(Cc2ccn3c(CC4CC4)nnc3c2C(F)(F)F)CCN1` (single isomer, unassigned) [Compound 3a, 3-(Cyclopropylmethyl)-7-[(3-methyl-3-phenyl-1-piperazinyl)methyl]-8-(trifluoromethyl)-1,2,4-triazolo[4,3-a]pyridine (*R) hydrochloride hydrate (.2HCl.2.5H2O)]: the maximal response (Emax) worked out at 271%. Take `CC1(c2ccccc2)CN(Cc2ccn3c(CC4CC4)nnc3c2C(F)(F)F)CCN1` (single isomer, unassigned) [Compound 3b, 3-(cyclopropylmethyl)-7-[(3-methyl-3-phenyl-1-piperazinyl)methyl]-8-(trifluoromethyl)-1,2,4-triazolo[4,3-a]pyridine (*S) hydrochloride hydrate (.2.4HCl.2.7H2O)]: the EC50 is 37.2 nM and the maximal response (Emax) turned out to be 292%. As to `FC(F)(F)c1c(CN2CCNC(c3ccccc3)C2)ccn2c(CC3CC3)nnc12` (single isomer, unassigned) [Compound 5a, 3-(Cyclopropylmethyl)-7-[(3-phenyl-1-piperazinyl)methyl]-8-(trifluoromethyl)-1,2,4-triazolo[4,3-a]pyridine(*R)], the EC50 is 2240 nM and the maximum response (Emax) was determined as 270%.

For the molecule `FC(F)(F)c1c(CN2CCNC(c3ccccc3)C2)ccn2c(CC3CC3)nnc12` (single isomer, unassigned) [Compound 5b, 3-(cyclopropylmethyl)-7-[(3-phenyl-1-piperazinyl)methyl]-8-(trifluoromethyl)-1,2,4-triazolo[4,3-a]pyridine (*S)], the EC50 is 955 nM and the “GTPγS - hmGluR2 PAM Emax” value is reported as 278%. For the molecule `Fc1ccccc1C1CN(Cc2ccn3c(CC4CC4)nnc3c2C(F)(F)F)CCN1` (single isomer, unassigned) [Compound 6a, 3-(cyclopropylmethyl)-7-[[3-(2-fluorophenyl)-1-piperazinyl]methyl]-8-(trifluoromethyl)-1,2,4-triazolo[4,3-a]pyridine (*R)], the EC50 is 447 nM and the “GTPγS - hmGluR2 PAM Emax” value stood at 208%. Taken in the same sequence, the figures for `Fc1ccccc1C1CN(Cc2ccn3c(CC4CC4)nnc3c2C(F)(F)F)CCN1` (single isomer, unassigned) [Compound 6b, 3-(cyclopropylmethyl)-7-[[3-(2-fluorophenyl)-1-piperazinyl]methyl]-8-(trifluoromethyl)-1,2,4-triazolo[4,3-a]pyridine (*S)] were 631 nM and 294%. For the molecule `CN1CCN(Cc2ccn3c(CC4CC4)nnc3c2C(F)(F)F)CC1c1ccccc1` (single isomer, unassigned) [Compound 7a, 3-(Cyclopropylmethyl)-7-[(4-methyl-3-phenyl-1-piperazinyl)methyl]-8-(trifluoromethyl)-1,2,4-triazolo[4,3-a]pyridine (*R)], the Emax is 199%. As to `CN1CCN(Cc2ccn3c(CC4CC4)nnc3c2C(F)(F)F)CC1c1ccccc1` (single isomer, unassigned) [Compound 7b, 3-(cyclopropylmethyl)-7-[(4-methyl-3-phenyl-1-piperazinyl)methyl]-8-(trifluoromethyl)-1,2,4-triazolo[4,3-a]pyridine (*S)], the EC50 was 263 nM and the Emax was 198%. As to `CC1(c2ccccc2)CN(Cc2ccn3c(CC4CC4)nnc3c2C(F)(F)F)CCO1` (single isomer, unassigned) [Compound 8a, 3-(Cyclopropylmethyl)-7-[(2-methyl-2-phenyl-4-morpholinyl)methyl]-8-(trifluoromethyl)-1,2,4-triazolo[4,3-a]pyridine (*R) hydrochloride hydrate (.1.1HCl.1.1H2O)], the EC50 is 676 nM and the “GTPγS - hmGluR2 PAM Emax” value was found to be 273%.

The values above are taken from patent publication US8993591B2, “1,2,4-triazolo[4,3-a] pyridine derivatives and their use as positive allosteric modulators of MGLUR2 receptors” (Janssen Pharmaceuticals, Inc., priority 2010, dated 2015).
